# Source: patent US20180355369A1, “Method for Increasing Plant Stress Tolerance and Seed Dormancy” (The Australian National University, priority 2015, published 2018)
# Entries after “also recorded” stand apart in the source; their conditions may differ.
# Columns and labels:
# stomata [1] = assay: Stomatal aperture in barley leaf epidermal peels; assay type: cell-based; conditions: exogenous PAP 100 μM
# Experimental: Measurements of stomatal closure in response to ABA, PAP, cordycepin and ATP treatments were performed on epidermal strips from Arabidopsis and barley plants grown under specific conditions. Plants were grown under high humidity (approximately 80% RH) and 12 h/12 h and 22/20° C. light/dark cycle in a growth chamber. Epidermal peels of newly expanding true leaves of three to four-week old plants. Stomatal apertures were measured in epidermal peels of newly expanded leaves. Peels were taken from the abaxial leaf surface and were fixed to the glass bottom of the experimental chamber after coating the chamber surface with an optically clear and pressure-sensitive silicon adhesive (Factor II, Tucson, USA). The attached epidermal peel is subsequently immersed in an opening buffer (OB: 50 mM KCl, 5 mM MES titrated to pH 6.1 with NaOH) and incubated, at plant growth conditions, for approximately 2 h. […] Stomata aperture width and length were measured using Image J (NIH, USA). The pore area of each stomate was calculated using these values under the assumption that the area of a stomatal pore was that of an ellipse. Data are expressed as percentage over the control.
# seeds = assay: Seed germination assay; assay type: in vivo, Arabidopsis
# Experimental: Seeds used for germination assays were 3-months-old and all from seed stocks produced and harvested from plants grown under identical conditions at the same time. Seeds were sterilized and grown on 0.8% (w/v) agar plates containing Murashige-Skoog (MS) nutrients and 2% (w/v) sucrose. Different combinations of 0, 1 μM ABA, 0, 0.5 μM paclobutrazol and/or 0, 100, 500 and 1000 μM PAP were supplemented into the media using the infiltration buffer. At least 70-100 seeds from each genotype were plated on the same plate for efficient comparison. The seeds were stratified at 4° C. in the dark for 48 h before transfer to a growth cabinet and grown at 22° C. under 24-h light (100 μmol photons m^−2 s^−1) unless stated otherwise. The germination was scored after 3 days as the emergence of the radicle through the seed coat and the germination rate was calculated as the percentage of the total number of seeds per treatment with five replicates for each treatment. The experiment was repeated twice and statistical analyses are described below.
# [2] = PAP accumulation in leaves after petiole feeding; assay type: in vivo, Arabidopsis; conditions: petiole feeding of PAP for 1 h, alone or co-applied with LiCl or ATP
# Experimental: (§1) Five- to six-week-old plants were used to prepare epidermal peels. ABA at a concentration of 20 μM in water was root fed to hydroponically grown plants or sprayed onto leaves using a Studio Series IS-875 with a 0.5 mm nozzle opening (Iwata). We investigated if PAP accumulation in the double mutants could affect the production of NO during ABA-induced stomatal closure by treating epidermal peels with the inhibitor of NO synthase N(G)-methyl-L-arginine (NMA). For the investigation of the effect of different chemicals on stomatal closure, 20 μM ABA (Sigma-Aldrich), 100 mM LiCl, or 1 mM ATP, 1 mM or 100 μM PAP (Sigma-Aldrich) alone or in different combinations were prepared in infiltration buffer (1 mM PIPES KOH pH 6.0, 1 mM Sodium citrate, 1 mM KCl, 15 mM Sucrose) modified from a cordycepin infiltration buffer.
# Total adenosines were extracted with 0.1 M HCl, derivatization with chloroacetaldehyde and quantified fluorometrically after HPLC fractionation. 3′-phosphoadenosine 5′-phosphate (PAP) quantification was performed by integrating the HPLC peak area and converting these to pmol units using standard curves of 1, 5 and 10 pmol standard.
# guard cells [3] = assay: ROS accumulation in guard cells of epidermal peels; assay type: cell-based, Arabidopsis; conditions: wild type, ost1-2 and ost1-2 alx8
# Experimental: The ABA- and PAP-induced accumulation of ROS in guard cells of epidermal peels was measured using dichlorofluorescein diacetate (H2DCFDA, Invitrogen). After 2 h of incubation in OB, the epidermal peel was incubated with 20 μM dye dissolved in DMSO and MB for 30 min, and then rinsed with MB three times. Epidermal peels were incubated in ABA or PAP dissolved in MB (or MB only as a negative control) for 10 min. Fluorescence images were taken using a Leica inverted confocal microscope controlled by the LAS AF software (Leica Microsystems, Germany). We used the 496-nm excitation line of an argon multiline laser. H2DCFDA fluorescence emission was detected at 505 to 525 nm. Chloroplast fluorescence was detected at 680 to 700 nm in order to separate the autofluorescence of chlorophyll in guard cells. Images were quantified with Image J software (National Institutes of Health, USA). The background signal was measured from the empty region of the similar size and subtracted from the stomata signal to obtain corrected total stomatal fluorescence values. Each stomate was considered to represent a single biological unit and thus fluorescence values were averaged across all stomata at each time point for each treatment. At least three biological replicates were measured for each treatment.
# guard cells [4] = assay: Ion fluxes (K+, Cl- and Ca2+) in guard cells; assay type: cell-based, Arabidopsis; conditions: wild type, ost1-2, alx8 and ost1-2 alx8
# stomata [5] = assay: Stomatal aperture in epidermal leaf peels; assay type: cell-based, Arabidopsis
# Experimental: as §1
# Measurements of stomatal aperture were performed with epidermal strips taken from five- to six-week-old plants. Fully developed leaves were cut and placed with their adaxial side onto cello tape. The vein was removed by razor blade and the abaxial epidermis was subsequently peeled off by using another strip of cello tape. To promote stomatal opening, the peels left adhered to the Scotch (810D Magic Tape, ¾ inch, 3M) were placed in petri dishes filled with stomatal opening solution (10 mM MES, 5 mM KCl, 50 μM CaCl2, pH 6.5) and incubated for 2 h at 22° C. under 150-200 μmol photons m^−2 s^−1 of light. Once the stomata were fully open, strips were maintained in the opening buffer or treated with various compounds according to the experiment. After treatment, photographs of stomata were taken using Leica microscope (Leica Microsystems, Wetzlar, Germany) at 20×. Stomatal aperture was measured using the image-processing software ImageJ. For stomatal aperture measurements, the ratio of stomatal pore width and length was used instead of width as this normalizes the pores of stomata of different size. Small stomata with a stomatal pore length of less than 7.5 μm were discarded. For each data point, 90 stomata were measured in 3 independent experiments. In each experiment, 10 stomata were measured in 3 epidermal strips per sample per treatment.
# Measurements of stomatal closure in response to ABA, PAP, cordycepin and ATP treatments were performed on epidermal strips from Arabidopsis and barley plants grown under specific conditions. Plants were grown under high humidity (approximately 80% RH) and 12 h/12 h and 22/20° C. light/dark cycle in a growth chamber. Epidermal peels of newly expanding true leaves of three to four-week old plants. Stomatal apertures were measured in epidermal peels of newly expanded leaves. Peels were taken from the abaxial leaf surface and were fixed to the glass bottom of the experimental chamber after coating the chamber surface with an optically clear and pressure-sensitive silicon adhesive (Factor II, Tucson, USA). The attached epidermal peel is subsequently immersed in an opening buffer (OB: 50 mM KCl, 5 mM MES titrated to pH 6.1 with NaOH) and incubated, at plant growth conditions, for approximately 2 h. Stomatal images were taken using a bright-field microscope capable of 400× magnification for 10 minutes in OB and subsequently in Measuring Buffer [MB: 10 mM KCl, 5 mM MES titrated to pH 6.1 with Ca(OH)2] or PAP or cordycepin or ABA (dissolved in MB) for another 50 min. In total this was a 60 minute time course and images of the epidermal section were taken every 5 minutes using NIS Elements software (Nikon, Japan). Stomata aperture width and length were measured using Image J (NIH, USA). The pore area of each stomate was calculated using these values under the assumption that the area of a stomatal pore was that of an ellipse. Data are expressed as percentage over the control.
smiles,measurement,setting,value
"Nc1ncnc2c1ncn2[C@@H]1O[C@H](COP(=O)(O)O)[C@@H](OP(=O)(O)O)[C@H]1O [PAP, 3′-phosphoadenosine 5′-phosphate]",stomatal conductance in barley,stomata [1],regulates stomatal conductance in barley
same,ABA responsiveness of germination in abi1-1,"seeds; abi1-1 seeds, addition of PAP alone",restored ABA responsiveness in abi1-1
same,seed germination / dormancy,"seeds; wild type seeds, exogenous PAP in conjunction with exogenous ABA (1 μM) or lower GA",extended the dormancy of seeds; also recorded: repress germination in wild type seeds in a dose-dependent manner
same,accumulation of PAP in leaves,[2],results in accumulation of PAP in leaves
same,ROS burst in guard cells,guard cells [3],phenocopying of the timing and extent of the ABA-induced ROS burst
same,ion fluxes,guard cells [4],mediated similar rapid changes in ion fluxes in all genotypes
same,magnitude and rate of ABA-mediated stomatal closure with added PAP,stomata [5]; PAP together with ABA,further enhanced
same,stomatal closure in leaf peels,"stomata [5]; leaf peels of wild type plants, 1 hr, PAP 100 μM, ABA 100 μM, cordycepin 10 μM",elicited rapid stomatal closure similar to the ABA response; also recorded: nearly identical to that of ABA
